How the values were obtained:
Heart [1] = assay: Biodistribution in ddY mouse heart at 4.8 MBq/0.1 mL after 60 mins by gamma counting; format: ADME, organism-based; details: in vivo, 1 h
Kidney [2] = assay: Biodistribution in ddY mouse kidney at 4.8 MBq/0.1 mL after 30 mins by gamma counting; format: ADME, organism-based; details: in vivo, 0.5 h
[3] = Drug uptake in monkey pons at 185 to 220 MBq, iv after 10 mins by PET analysis; format: ADME, organism-based, Macaca mulatta; details: rhesus monkey, in vivo
Brain [4] = assay: Drug uptake in monkey brain at 185 to 220 MBq, iv after 10 to 60 mins by PET analysis in presence of unlabeled 4-(6-chloropyrimidin-4-yl)-N-methylthiazol-2-amine; format: ADME, organism-based, Macaca mulatta; details: rhesus monkey, in vivo
Lung [5] = assay: Biodistribution in ddY mouse lung at 4.8 MBq/0.1 mL after 30 mins by gamma counting; format: ADME, organism-based; details: in vivo, 0.5 h
[6] = Drug uptake in monkey putamen at 185 to 220 MBq, iv after 10 mins by PET analysis; format: ADME, organism-based, Macaca mulatta; details: rhesus monkey, in vivo
Mus musculus [7] = species: Mus musculus; assay: Biodistribution in ddY mouse testis at 4.8 MBq/0.1 mL after 15 mins by gamma counting; format: ADME, organism-based; details: in vivo, 0.25 h
Kidney [8] = assay: Biodistribution in ddY mouse kidney at 4.8 MBq/0.1 mL after 15 mins by gamma counting; format: ADME, organism-based; details: in vivo, 0.25 h
Mus musculus [9] = species: Mus musculus; assay: Biodistribution in ddY mouse small intestine at 4.8 MBq/0.1 mL after 90 mins by gamma counting; format: ADME, organism-based; details: in vivo, 1.5 h
Mus musculus [10] = species: Mus musculus; assay: Biodistribution in ddY mouse testis at 4.8 MBq/0.1 mL after 5 mins by gamma counting; format: ADME, organism-based; details: in vivo
[11] = Drug uptake in monkey cerebellum at 185 to 220 MBq, iv after 10 to 60 mins by PET analysis; format: ADME, organism-based, Macaca mulatta; details: rhesus monkey, in vivo
Liver [12] = assay: Biodistribution in ddY mouse liver at 4.8 MBq/0.1 mL after 90 mins by gamma counting; format: ADME, organism-based; details: in vivo, 1.5 h
Blood [13] = assay: Biodistribution in ddY mouse blood at 4.8 MBq/0.1 mL after 60 mins by gamma counting; format: ADME, organism-based; details: in vivo, 1 h
Muscle tissue [14] = assay: Biodistribution in ddY mouse muscle at 4.8 MBq/0.1 mL after 5 mins by gamma counting; format: ADME, organism-based; details: in vivo
[15] = Drug uptake in monkey putamen assessed as distribution volume ratio at 185 to 220 MBq, iv after 10 to 90 mins by PET analysis; format: ADME, organism-based, Macaca mulatta; details: rhesus monkey, in vivo
Pancreas [16] = assay: Biodistribution in ddY mouse pancreas at 4.8 MBq/0.1 mL after 30 mins by gamma countingeas; format: ADME, organism-based; details: in vivo, 0.5 h
Mus musculus [17] = species: Mus musculus; assay: Biodistribution in ddY mouse small intestine at 4.8 MBq/0.1 mL after 30 mins by gamma counting; format: ADME, organism-based; details: in vivo, 0.5 h
[18] = Drug uptake in monkey thalamus at 185 to 220 MBq, iv after 20 mins by PET analysis; format: ADME, organism-based, Macaca mulatta; details: rhesus monkey, in vivo
Mus musculus [19] = species: Mus musculus; assay: Biodistribution in ddY mouse small intestine at 4.8 MBq/0.1 mL after 1 min by gamma counting; format: ADME, organism-based; details: in vivo
Mus musculus [20] = species: Mus musculus; assay: Biodistribution in ddY mouse small intestine at 4.8 MBq/0.1 mL after 5 mins by gamma counting; format: ADME, organism-based; details: in vivo
Heart [21] = assay: Biodistribution in ddY mouse heart at 4.8 MBq/0.1 mL after 1 min by gamma counting; format: ADME, organism-based; details: in vivo
Kidney [22] = assay: Biodistribution in ddY mouse kidney at 4.8 MBq/0.1 mL after 60 mins by gamma counting; format: ADME, organism-based; details: in vivo, 1 h
Liver [23] = assay: Biodistribution in ddY mouse liver at 4.8 MBq/0.1 mL after 30 mins by gamma counting; format: ADME, organism-based; details: in vivo, 0.5 h
Muscle tissue [24] = assay: Biodistribution in ddY mouse muscle at 4.8 MBq/0.1 mL after 60 mins by gamma counting; format: ADME, organism-based; details: in vivo, 1 h
Kidney [25] = assay: Biodistribution in ddY mouse kidney at 4.8 MBq/0.1 mL after 90 mins by gamma counting; format: ADME, organism-based; details: in vivo, 1.5 h
Brain [26] = assay: Biodistribution in ddY mouse brain at 4.8 MBq/0.1 mL after 15 mins by gamma counting; format: ADME, organism-based; details: in vivo, 0.25 h
[27] = Drug uptake in monkey thalamus at 185 to 220 MBq, iv after 10 to 60 mins by PET analysis; format: ADME, organism-based, Macaca mulatta; details: rhesus monkey, in vivo
Brain [28] = assay: Biodistribution in ddY mouse brain at 4.8 MBq/0.1 mL after 90 mins by gamma counting; format: ADME, organism-based; details: in vivo, 1.5 h
Lung [29] = assay: Biodistribution in ddY mouse lung at 4.8 MBq/0.1 mL after 1 min by gamma counting; format: ADME, organism-based; details: in vivo
[30] = Metabolic stability in Sprague-Dawley plasma assessed as unchanged drug level at 37 MBq/0.1 mL, iv after 5 mins; format: ADME, organism-based; details: rat, read-out: Stability
Pancreas [31] = assay: Biodistribution in ddY mouse pancreas at 4.8 MBq/0.1 mL after 60 mins by gamma countingeas; format: ADME, organism-based; details: in vivo, 1 h
[32] = Drug uptake in monkey thalamus assessed as distribution volume ratio at 185 to 220 MBq, iv after 10 to 90 mins by PET analysis; format: ADME, organism-based, Macaca mulatta; details: rhesus monkey, in vivo
Mus musculus [33] = species: Mus musculus; assay: Biodistribution in ddY mouse testis at 4.8 MBq/0.1 mL after 60 mins by gamma counting; format: ADME, organism-based; details: in vivo, 1 h
[34] = Drug uptake in monkey pons at 185 to 220 MBq, iv after 10 to 60 mins by PET analysis; format: ADME, organism-based, Macaca mulatta; details: rhesus monkey, in vivo
Brain [35] = assay: Biodistribution in ddY mouse brain at 4.8 MBq/0.1 mL after 60 mins by gamma counting; format: ADME, organism-based; details: in vivo, 1 h
[36] = Metabolic stability in Sprague-Dawley brain assessed as unchanged drug level at 37 MBq/0.1 mL, iv after 30 mins; format: ADME, organism-based; details: rat, read-out: Stability
Spleen = assay: Biodistribution in ddY mouse spleen at 4.8 MBq/0.1 mL after 90 mins by gamma counting; format: ADME, organism-based; details: in vivo, 1.5 h
Brain [37] = assay: Biodistribution in ddY mouse brain at 4.8 MBq/0.1 mL after 5 mins by gamma counting; format: ADME, organism-based; details: in vivo
Brain [38] = assay: Biodistribution in ddY mouse brain at 4.8 MBq/0.1 mL after 1 min by gamma counting; format: ADME, organism-based; details: in vivo
Blood [39] = assay: Biodistribution in ddY mouse blood at 4.8 MBq/0.1 mL after 5 mins by gamma counting; format: ADME, organism-based; details: in vivo
Mus musculus [40] = species: Mus musculus; assay: Biodistribution in ddY mouse testis at 4.8 MBq/0.1 mL after 1 min by gamma counting; format: ADME, organism-based; details: in vivo
[41] = Metabolic stability in Sprague-Dawley plasma assessed as unchanged drug level at 37 MBq/0.1 mL, iv after 60 mins; format: ADME, organism-based; details: rat, read-out: Stability
Pancreas [42] = assay: Biodistribution in ddY mouse pancreas at 4.8 MBq/0.1 mL after 90 mins by gamma countingeas; format: ADME, organism-based; details: in vivo, 1.5 h
Heart [43] = assay: Biodistribution in ddY mouse heart at 4.8 MBq/0.1 mL after 5 mins by gamma counting; format: ADME, organism-based; details: in vivo
Mus musculus [44] = species: Mus musculus; assay: Biodistribution in ddY mouse large intestine at 4.8 MBq/0.1 mL after 30 mins by gamma counting; format: ADME, organism-based; details: in vivo, 0.5 h
Blood [45] = assay: Biodistribution in ddY mouse blood at 4.8 MBq/0.1 mL after 30 mins by gamma counting; format: ADME, organism-based; details: in vivo, 0.5 h
[46] = Drug uptake in monkey caudate assessed as distribution volume ratio at 185 to 220 MBq, iv after 10 to 90 mins by PET analysis; format: ADME, organism-based, Macaca mulatta, Caudate nucleus; details: rhesus monkey, in vivo
[47] = Metabolic stability in monkey plasma assessed as unchanged drug level at 185 MBq/0.1 mL, iv after 30 mins; format: ADME, organism-based, Macaca mulatta; details: rhesus monkey, read-out: Stability
Hippocampus = assay: Drug uptake in monkey hippocampus at 185 to 220 MBq, iv after 10 mins by PET analysis; format: ADME, organism-based, Macaca mulatta; details: rhesus monkey, in vivo
Lung [48] = assay: Biodistribution in ddY mouse lung at 4.8 MBq/0.1 mL after 60 mins by gamma counting; format: ADME, organism-based; details: in vivo, 1 h

Drug uptake (Heart [1]): 0.06 % ID/g
Drug uptake (Kidney [2]): 0.56 % ID/g
Drug uptake [3]: Active
Drug uptake (Brain [4]): Not Active
Drug uptake (Lung [5]): 0.31 % ID/g
Drug uptake [6]: Active
Drug uptake (Mus musculus [7]): 0.41 % ID/g
Drug uptake (Kidney [8]): 1.32 % ID/g
Drug uptake (Mus musculus [9]): 7.09 % ID/g
Drug uptake (Mus musculus [10]): 0.63 % ID/g
Drug uptake [11]: Active
Drug uptake (Liver [12]): 0.3 % ID/g
Drug uptake (Blood [13]): 0.05 % ID/g
Drug uptake (Muscle tissue [14]): 0.96 % ID/g
Ratio [15]: 1.5
Drug uptake (Pancreas [16]): 0.06 % ID/g
Drug uptake (Mus musculus [17]): 16.53 % ID/g
SUV [18]: 0.8
Drug uptake (Mus musculus [19]): 10.07 % ID/g
Drug uptake (Mus musculus [20]): 66.76 % ID/g
Drug uptake (Heart [21]): 4.93 % ID/g
Drug uptake (Kidney [22]): 0.22 % ID/g
Drug uptake (Liver [23]): 1.43 % ID/g
Drug uptake (Muscle tissue [24]): 0.07 % ID/g
Drug uptake (Kidney [25]): 0.11 % ID/g
Drug uptake (Brain [26]): 1.99 % ID/g
Drug uptake [27]: Active
Drug uptake (Brain [28]): 0.62 % ID/g
Drug uptake (Lung [29]): 5.48 % ID/g
remaining at 5 min [30]: 67.9%
Drug uptake (Pancreas [31]): 0.03 % ID/g
Ratio [32]: 2
Drug uptake (Mus musculus [33]): 0.13 % ID/g
Drug uptake [34]: Active
Drug uptake (Brain [35]): 1.04 % ID/g
remaining at 0.5 h [36]: 97%
Drug uptake (Spleen): 0.02 % ID/g
Drug uptake (Brain [37]): 2.58 % ID/g
Drug uptake (Brain [38]): 2.19 % ID/g
Drug uptake (Blood [39]): 1.27 % ID/g
Drug uptake (Mus musculus [40]): 1.07 % ID/g
remaining at 1 h [41]: 33.9%
Drug uptake (Pancreas [42]): 0.04 % ID/g
Drug uptake (Heart [43]): 1.28 % ID/g
Drug uptake (Mus musculus [44]): 2.32 % ID/g
Drug uptake (Blood [45]): 0.14 % ID/g
Ratio [46]: 1.5
remaining at 0.5 h [47]: 35.8%
Drug uptake (Hippocampus): Active
Drug uptake (Lung [48]): 0.2 % ID/g
Compound: CC(C)Nc1cc(-c2csc(N(C)C(=O)c3ccc([14CH3])cc3)n2)ncn1

Source: ChEMBL document CHEMBL2176881, “Development of N-[4-[6-(isopropylamino)pyrimidin-4-yl]-1,3-thiazol-2-yl]-N-methyl-4-[11C]methylbenzamide for positron emission tomography imaging of metabotropic glutamate 1 receptor in monkey brain” (J Med Chem, 2012)
